# Legend:
# fermentation = conditions: cited from earlier work
# Weisella confusa = conditions: cited from earlier work
# bacteria = test: Plant trial: lactate in the fermentor while the thin juice line is treated with chlorine dioxide
# Experimental: A thin juice line at a sugar plant that fed into a distillery for fermentation was treated with chlorine dioxide according to the present method. Previously the thin juice line had been treated using sulfuric acid to decrease the pH. The trial evaluated the bacterial efficacy of chlorine dioxide at an elevated pH in order to reduce sulfuric acid use without causing a detrimental effect to the yeast or fermentation.
# In the trial, 90% pure chlorine dioxide solution was generated. Twenty parts per million (ppm) of chlorine dioxide was introduced into the thin juice line. Thin juice samples were collected before during and after the trial. The samples were examined for chlorite, chlorate and chloride residuals.
# During the trial, bacterial samples were also collected and analyzed at various locations in the system.
# The data indicates a low level of lactate before chlorine dioxide was introduced at the normal pH of 3.5. […] On day 18 the equipment had to be shutdown due to an unrelated issue.
compound,measurement,setting,value
Virginiamycin,concentration that will suppress fermentation,fermentation,over 6 mg/L
same,concentration required to inhibit growth of Weisella confusa,Weisella confusa,over 25 mg/L
[O][Cl+][O-] [chlorine dioxide],Lactate Concentration,"bacteria; Day of Trial 4, Fifth location in the Fermentor",0.6 g/L
same,Lactate Concentration,"bacteria; Day of Trial 4, First location in the Fermentor",0.39 g/L
same,Lactate Concentration,"bacteria; Day of Trial 4, Fourth location in the Fermentor",0.58 g/L
same,Lactate Concentration,"bacteria; Day of Trial 4, Second location in the Fermentor",0.6 g/L
same,Lactate Concentration,"bacteria; Day of Trial 4, Third location in the Fermentor",0.6 g/L
same,Lactate Concentration,"bacteria; Day of Trial 5, Fifth location in the Fermentor",0.75 g/L
same,Lactate Concentration,"bacteria; Day of Trial 5, First location in the Fermentor",0.44 g/L
same,Lactate Concentration,"bacteria; Day of Trial 5, Fourth location in the Fermentor",0.69 g/L
same,Lactate Concentration,"bacteria; Day of Trial 5, Second location in the Fermentor",0.66 g/L
same,Lactate Concentration,"bacteria; Day of Trial 5, Third location in the Fermentor",0.71 g/L
same,Lactate Concentration,"bacteria; Day of Trial 6, Fifth location in the Fermentor",0.69 g/L
same,Lactate Concentration,"bacteria; Day of Trial 6, First location in the Fermentor",0.39 g/L
same,Lactate Concentration,"bacteria; Day of Trial 6, Fourth location in the Fermentor",0.71 g/L
same,Lactate Concentration,"bacteria; Day of Trial 6, Second location in the Fermentor",0.54 g/L
same,Lactate Concentration,"bacteria; Day of Trial 6, Third location in the Fermentor",0.62 g/L
same,Lactate Concentration,"bacteria; Day of Trial 7, Fifth location in the Fermentor",0.9 g/L
same,Lactate Concentration,"bacteria; Day of Trial 7, First location in the Fermentor",0.51 g/L
same,Lactate Concentration,"bacteria; Day of Trial 7, Fourth location in the Fermentor",0.88 g/L
same,Lactate Concentration,"bacteria; Day of Trial 7, Second location in the Fermentor",0.76 g/L
same,Lactate Concentration,"bacteria; Day of Trial 7, Third location in the Fermentor",0.81 g/L
same,Lactate Concentration,"bacteria; Day of Trial 8, Fifth location in the Fermentor",0.75 g/L
same,Lactate Concentration,"bacteria; Day of Trial 8, First location in the Fermentor",0.44 g/L
same,Lactate Concentration,"bacteria; Day of Trial 8, Fourth location in the Fermentor",0.7 g/L
same,Lactate Concentration,"bacteria; Day of Trial 8, Second location in the Fermentor",0.55 g/L
same,Lactate Concentration,"bacteria; Day of Trial 8, Third location in the Fermentor",0.64 g/L
same,Lactate Concentration,"bacteria; Day of Trial 9, Fifth location in the Fermentor",0.83 g/L
same,Lactate Concentration,"bacteria; Day of Trial 9, First location in the Fermentor",0.5 g/L
same,Lactate Concentration,"bacteria; Day of Trial 9, Fourth location in the Fermentor",0.78 g/L
same,Lactate Concentration,"bacteria; Day of Trial 9, Second location in the Fermentor",0.68 g/L
same,Lactate Concentration,"bacteria; Day of Trial 9, Third location in the Fermentor",0.74 g/L
same,Lactate Concentration,"bacteria; Day of Trial 10, Fifth location in the Fermentor",0.84 g/L
same,Lactate Concentration,"bacteria; Day of Trial 10, First location in the Fermentor",0.55 g/L
same,Lactate Concentration,"bacteria; Day of Trial 10, Fourth location in the Fermentor",0.83 g/L
same,Lactate Concentration,"bacteria; Day of Trial 10, Second location in the Fermentor",0.77 g/L
same,Lactate Concentration,"bacteria; Day of Trial 10, Third location in the Fermentor",0.82 g/L
same,Lactate Concentration,"bacteria; Day of Trial 11, Fifth location in the Fermentor",0.8 g/L
same,Lactate Concentration,"bacteria; Day of Trial 11, First location in the Fermentor",0.4 g/L
same,Lactate Concentration,"bacteria; Day of Trial 11, Fourth location in the Fermentor",0.65 g/L
same,Lactate Concentration,"bacteria; Day of Trial 11, Second location in the Fermentor",0.5 g/L
same,Lactate Concentration,"bacteria; Day of Trial 11, Third location in the Fermentor",0.55 g/L
same,Lactate Concentration,"bacteria; Day of Trial 13, Fifth location in the Fermentor",0.42 g/L
same,Lactate Concentration,"bacteria; Day of Trial 13, First location in the Fermentor",0.22 g/L
same,Lactate Concentration,"bacteria; Day of Trial 13, Fourth location in the Fermentor",0.39 g/L
same,Lactate Concentration,"bacteria; Day of Trial 13, Second location in the Fermentor",0.33 g/L
same,Lactate Concentration,"bacteria; Day of Trial 13, Third location in the Fermentor",0.36 g/L
same,Lactate Concentration,"bacteria; Day of Trial 14, Fifth location in the Fermentor",0.51 g/L
same,Lactate Concentration,"bacteria; Day of Trial 14, First location in the Fermentor",0.22 g/L
same,Lactate Concentration,"bacteria; Day of Trial 14, Fourth location in the Fermentor",0.4 g/L
same,Lactate Concentration,"bacteria; Day of Trial 14, Second location in the Fermentor",0.36 g/L
same,Lactate Concentration,"bacteria; Day of Trial 14, Third location in the Fermentor",0.37 g/L
same,Lactate Concentration,"bacteria; Day of Trial 15, Fifth location in the Fermentor",0.5 g/L
same,Lactate Concentration,"bacteria; Day of Trial 15, First location in the Fermentor",0.22 g/L
same,Lactate Concentration,"bacteria; Day of Trial 15, Fourth location in the Fermentor",0.4 g/L
same,Lactate Concentration,"bacteria; Day of Trial 15, Second location in the Fermentor",0.32 g/L
same,Lactate Concentration,"bacteria; Day of Trial 15, Third location in the Fermentor",0.34 g/L
same,Lactate Concentration,"bacteria; Day of Trial 16, Fifth location in the Fermentor",0.6 g/L
same,Lactate Concentration,"bacteria; Day of Trial 16, First location in the Fermentor",0.3 g/L
same,Lactate Concentration,"bacteria; Day of Trial 16, Fourth location in the Fermentor",0.5 g/L
same,Lactate Concentration,"bacteria; Day of Trial 16, Second location in the Fermentor",0.4 g/L
same,Lactate Concentration,"bacteria; Day of Trial 16, Third location in the Fermentor",0.45 g/L
same,Lactate Concentration,"bacteria; Day of Trial 17, Fifth location in the Fermentor",0.67 g/L
same,Lactate Concentration,"bacteria; Day of Trial 17, First location in the Fermentor",0.29 g/L
same,Lactate Concentration,"bacteria; Day of Trial 17, Fourth location in the Fermentor",0.57 g/L
same,Lactate Concentration,"bacteria; Day of Trial 17, Second location in the Fermentor",0.43 g/L
same,Lactate Concentration,"bacteria; Day of Trial 17, Third location in the Fermentor",0.5 g/L
same,Lactate Concentration,"bacteria; Day of Trial 18, Fifth location in the Fermentor",0.62 g/L
same,Lactate Concentration,"bacteria; Day of Trial 18, First location in the Fermentor",0.43 g/L
same,Lactate Concentration,"bacteria; Day of Trial 18, Fourth location in the Fermentor",0.6 g/L
same,Lactate Concentration,"bacteria; Day of Trial 18, Second location in the Fermentor",0.48 g/L
same,Lactate Concentration,"bacteria; Day of Trial 18, Third location in the Fermentor",0.54 g/L
same,Lactate Concentration,"bacteria; Day of Trial 19, Fifth location in the Fermentor",1.1 g/L
same,Lactate Concentration,"bacteria; Day of Trial 19, First location in the Fermentor",0.4 g/L
same,Lactate Concentration,"bacteria; Day of Trial 19, Fourth location in the Fermentor",0.8 g/L
same,Lactate Concentration,"bacteria; Day of Trial 19, Second location in the Fermentor",0.6 g/L
same,Lactate Concentration,"bacteria; Day of Trial 19, Third location in the Fermentor",0.7 g/L
same,Lactate Concentration,"bacteria; Day of Trial 20, Fifth location in the Fermentor",0.85 g/L
same,Lactate Concentration,"bacteria; Day of Trial 20, First location in the Fermentor",0.55 g/L
same,Lactate Concentration,"bacteria; Day of Trial 20, Fourth location in the Fermentor",0.5 g/L
same,Lactate Concentration,"bacteria; Day of Trial 20, Second location in the Fermentor",0.7 g/L
same,Lactate Concentration,"bacteria; Day of Trial 20, Third location in the Fermentor",0.75 g/L
same,Lactate Concentration,"bacteria; Day of Trial 21, Fifth location in the Fermentor",1.36 g/L
same,Lactate Concentration,"bacteria; Day of Trial 21, First location in the Fermentor",0.9 g/L
same,Lactate Concentration,"bacteria; Day of Trial 21, Fourth location in the Fermentor",1.35 g/L
same,Lactate Concentration,"bacteria; Day of Trial 21, Second location in the Fermentor",1.16 g/L
same,Lactate Concentration,"bacteria; Day of Trial 21, Third location in the Fermentor",1.24 g/L
same,Lactate Concentration,"bacteria; Day of Trial 22, Fifth location in the Fermentor",1.66 g/L
same,Lactate Concentration,"bacteria; Day of Trial 22, First location in the Fermentor",1.31 g/L
same,Lactate Concentration,"bacteria; Day of Trial 22, Fourth location in the Fermentor",2.04 g/L
same,Lactate Concentration,"bacteria; Day of Trial 22, Second location in the Fermentor",1.73 g/L
same,Lactate Concentration,"bacteria; Day of Trial 22, Third location in the Fermentor",2.01 g/L
same,Lactate Concentration,"bacteria; Day of Trial 23, Fifth location in the Fermentor",2.15 g/L
same,Lactate Concentration,"bacteria; Day of Trial 23, First location in the Fermentor",1.39 g/L
same,Lactate Concentration,"bacteria; Day of Trial 23, Fourth location in the Fermentor",2.19 g/L
same,Lactate Concentration,"bacteria; Day of Trial 23, Second location in the Fermentor",1.75 g/L
same,Lactate Concentration,"bacteria; Day of Trial 23, Third location in the Fermentor",2.01 g/L
same,Lactate Concentration,"bacteria; Day of Trial 24, Fifth location in the Fermentor",2.13 g/L
same,Lactate Concentration,"bacteria; Day of Trial 24, First location in the Fermentor",1.12 g/L
same,Lactate Concentration,"bacteria; Day of Trial 24, Fourth location in the Fermentor",2 g/L
same,Lactate Concentration,"bacteria; Day of Trial 24, Second location in the Fermentor",1.41 g/L
same,Lactate Concentration,"bacteria; Day of Trial 24, Third location in the Fermentor",1.73 g/L
same,lactate trend once treatment was started,bacteria; chlorine dioxide at 20 ppm with a pH elevation to 4,trended downward
